Test: xn = mol fraction of the nth substance listed
Conditions: 101.3 kPa, Liquid, Vibrating tube method

CC(O)CO (centres undefined) [1,2-propanediol] + CCCCCCO
mass density [kg/m3]
Conditions | x1 = 0.1014 | x1 = 0.1998 | x1 = 0.2999 | x1 = 0.4003 | x1 = 0.4939 | x1 = 0.5996 | x1 = 0.6965 | x1 = 0.7989 | x1 = 0.9005 | x1 = 1
293.15 K | 831.496 | 845.231 | 860.667 | 877.818 | 895.533 | 917.945 | 941.028 | 968.795 | 1000.46 | 1036.21
298.15 K | 827.881 | 841.574 | 856.979 | 874.105 | 891.801 | 914.203 | 937.285 | 965.064 | 996.753 | 1032.55
303.15 K | 824.235 | 837.887 | 853.262 | 870.363 | 888.041 | 910.432 | 933.51 | 961.302 | 993.003 | 1028.84
308.15 K | 820.566 | 834.178 | 849.521 | 866.596 | 884.256 | 906.63 | 929.702 | 957.503 | 989.222 | 1025.09
313.15 K | 816.869 | 830.44 | 845.751 | 862.8 | 880.441 | 902.801 | 925.868 | 953.677 | 985.406 | 1021.31
318.15 K | 813.142 | 826.676 | 841.952 | 858.977 | 876.599 | 898.941 | 922.002 | 949.81 | 981.555 | 1017.49

CC(O)CO (centres undefined) [1,2-propanediol] + CCCO
mass density [kg/m3]
Conditions | x1 = 0.1001 | x1 = 0.2 | x1 = 0.3001 | x1 = 0.3999 | x1 = 0.4999 | x1 = 0.6997 | x1 = 0.7998 | x1 = 0.9497 | x1 = 1
293.15 K | 827.101 | 850.504 | 873.567 | 897.361 | 920.615 | 967.056 | 990.126 | 1024.72 | 1036.13
298.15 K | 823.072 | 846.479 | 869.634 | 893.372 | 916.676 | 963.215 | 986.331 | 1021.04 | 1032.48
303.15 K | 819.008 | 842.415 | 865.603 | 889.385 | 912.697 | 959.329 | 982.502 | 1017.3 | 1028.78
308.15 K | 814.909 | 838.312 | 861.519 | 885.326 | 908.683 | 955.407 | 978.642 | 1013.52 | 1025.05
313.15 K | 810.77 | 834.174 | 857.399 | 881.264 | 904.631 | 951.451 | 974.743 | 1009.71 | 1021.28
318.15 K | 806.589 | 829.994 | 853.237 | 877.138 | 900.544 | 947.456 | 970.809 | 1005.86 | 1017.47

From the NIST ThermoML archive (doi:10.1016/j.jct.2012.12.003)
